melting point	Compound
118 to 119 °C	Cc1oc(-c2ccccc2)nc1COc1ccc2c(-c3ccccc3)c(COc3nn(-c4ccccc4)cc3CO)oc2c1
145 to 148 °C	O=[N+]([O-])c1cccc2c1nnn2C1CCCC(Cl)C1Cl (configuration not stated)
154 to 162 °C	COc1cccc2c(Nc3ccc(C(=O)NC4CCN(Cc5ccccc5)CC4)cc3)c(C(N)=O)cnc12
160 °C	Cn1c([N+](=O)[O-])cnc1CS(=O)c1ccccn1 (configuration not stated)
180 to 182 °C	COCCN1CCc2ccc(Nc3ncc(Cl)c(N[C@@H]4CCCC[C@H]4NC(=O)C(F)(F)F)n3)cc2CC1
119 °C	COC(=O)C(C)C(=O)Nc1ccc(OCc2cccc(F)c2)cc1 (configuration not stated)
56 to 61 °C	CCOCc1nc(C(C)(C)O)c(C(=O)OCOC(=O)C(C)(C)C)n1Cc1ccc(-c2ccccc2-c2nnn[nH]2)cc1
175 to 177 °C	CC(C)(C)OC(=O)NCC1=CC(c2ccccc2)Cc2c1ccc(O)c2O (configuration not stated)
211 to 213 °C	COc1ccc2cc(-n3c(C)nnc3C)cc(C)c2n1
215 to 220 °C	C[C@@H](NC(=O)c1nc(-c2ccc(Cl)cc2)ns1)[C@](O)(Cn1cncn1)c1ccc(F)cc1F
229 to 231 °C	CC(=O)Nc1cnc(C=NNC(N)=S)cc1C
187 to 189 °C	c1ccc(C(CCOc2ccc(Cc3nnn[nH]3)cc2)(c2ccccc2)c2ccccc2)cc1
182 to 184 °C	O=Cc1cc(O)ccc1-c1cccnc1
160 to 162 °C	CC(C)c1cc(Cl)cc(C(C)C)c1NC(=O)NS(=O)(=O)c1cccc(C(C)(C)O)c1
154 to 157 °C	CNC(=O)[C@@H](C[C@H](O)[C@H](CC1CCCCC1)NC(=O)OC(C)(C)C)C(C)C
200 to 203 °C	COc1ccc2cc(N3CCN(C4CCC(c5c[nH]c6ccc(F)cc56)CC4)CC3)ccc2c1 (configuration not stated)
67 to 69 °C	Fc1cccc(F)c1-c1cncnc1
172 to 183 °C	COC(=O)c1[nH]c2cc(Cl)ccc2c1-c1ccc(F)cc1
218 to 219 °C	CCC(CCCNC(=O)Nc1cccnc1)NC(=O)Nc1cccnc1 (configuration not stated)
148 to 150 °C	COc1cc(C)c(S(C)=O)cc1O (configuration not stated)
192 to 193 °C	COC(=O)c1[nH]c2cccc(C)c2c1Sc1ccc(Cl)cc1
> 250 °C	O=C1CC(c2cccc(-n3ccnn3)c2)=Nc2cc(O)c(-c3ccc(F)cc3)cc2N1
> 300 °C	CC(=O)NC1CCC(Nc2ncc3c(N)cc(=O)n(CCCO)c3n2)CC1 (configuration not stated)
70 to 74 °C	Cn1c(-c2cccs2)cnc1[C@H](Cc1ccccn1)N(C=O)c1cc2cc(Cl)ccc2o1

melting point	Compound
307 °C	Nc1ncc(-c2ccc(=O)[nH]n2)c(-c2ccc(F)c(F)c2)n1
81 to 83 °C	CNC(=O)C(C#N)C(=O)C1CCC1 (configuration not stated)
149 to 151 °C	Nc1c(C(=O)c2cc(F)cc(F)c2)[nH]c2cc(Cl)ccc12
64 to 66 °C	CCOC(=O)c1c(C)nc2c(ncn2C)c1OCCC(C)C
175 to 176 °C	O=c1c(CCc2cccs2)cc2cccnc2n1-c1cccc([N+](=O)[O-])c1
138 to 139 °C	CCN(CC)CC1CCCCN1CCNC(=O)N1c2cccnc2NC(=O)c2c1c(C)nn2C (configuration not stated)
65 to 78 °C	N=C(N)N(CCCC(C=O)NC(=O)C1CCCN1C(=O)COc1ccccc1)C(=O)OCc1ccccc1 (configuration not stated)
> 250 °C	N#CNC(=S)Nc1ccccc1
191 to 193 °C	CNC1=NS(=O)N=C1NCCS (configuration not stated)
187 to 188 °C	O=C(O)[C@H](Cc1ccccc1)Nc1c(NC(c2ccccc2)c2ccccc2)c(=O)c1=O
145 to 146 °C	CSc1noc(C2CC2)c1C(=O)c1ccc(C(F)(F)F)cc1S(C)(=O)=O
80 to 82 °C	CC1(C)C=CC=CC1NCC1=NCCN1 (configuration not stated)
94 to 96 °C	C[Si](C)(C)C1(COC(=O)Nc2ccccc2)c2ccccc2-c2ccccc21
78 to 81 °C	CC(C)N(CC(=O)c1ccc(F)cc1)c1ccccc1
65 to 66 °C	CCOC1=C(CCCCCCC(=O)O)C(=O)CC1
162 to 163 °C	O=C(CCc1nnc(Nc2ccccc2Cl)o1)NC1CCN(Cc2ccc(F)c(F)c2)CC1
130 °C	O=C1C(Cc2ccccc2)N(c2ccc(Oc3ccccc3)cc2)C(=S)N1c1ccccc1 (configuration not stated)
98 to 99 °C	COC(=O)c1c(Cl)cc(Cl)cc1NC(=O)CSc1ccccc1Cl
> 250 °C	Fc1cccc2c1[nH]c1c2ccc2cc[nH]c21
222 °C	Cc1cc2c(cc1C)C(=O)c1c(N)cccc1C2=O
139 to 140 °C	CCOC(=O)c1cn(CCc2ccccc2)c2occc2c1=O
152 to 153 °C	O=C(O)CSc1c(C(=O)O)[nH]c2cc(Cl)cc(Cl)c12
245 to 247 °C	Cc1nc(-c2nn(-c3ccccc3)c(=O)cc2Oc2ccccc2)n[nH]1
193 to 196 °C	COc1ccc(C(=O)NC(=S)Nc2ccccc2C(N)=O)cc1

melting point	Compound
89 to 91 °C	C[C@@H](Cc1ccc(OCC(=O)O)cc1)NS(=O)(=O)c1ccccc1
59 to 61 °C	CC(=O)N(C#N)CCCCCCN(C#N)C(C)=O
136 to 138 °C	C#CCOc1cc(-n2c(OC)nc(C(F)(F)F)cc2=O)c(F)cc1Br
287 to 289 °C	CC(C)NC1=NS(=O)(=O)c2cc(C(F)(F)F)ccc2N1
245 to 246 °C	CC(=O)NC1CCc2c([nH]c3cc(O)ccc23)C1 (configuration not stated)
90 °C	CC(C)OC(=O)c1cc(-c2nn(C)c(C(F)(F)F)c2C=O)c(F)cc1Cl
176 to 177 °C	O=C(CCc1cnoc1-c1ccccc1)Nc1ccc(-n2ccnc2)cc1
125 to 127 °C	C=CCc1ccc2oc(C=CC(=O)OCC)c(C)c2c1O
98 to 100 °C	CCOC(=O)Cn1nnnc1S(=O)(=O)c1ccc(C)cc1
184 to 185 °C	COC(=O)NS(=O)(=O)c1ccc(NC(=O)COc2ccc(Cl)cc2C)cc1
129 to 130 °C	O=C(O)C(=O)c1ccc(OCCOc2ccc([N+](=O)[O-])cc2)cc1
> 280 °C	Cc1c(N)c([N+](=O)[O-])cc2c(=O)c(C(=O)O)cn(-c3cc(N)c(F)cc3F)c12
< 50 °C	CCOC(=O)C(=Cc1cccc(OC)c1OC)N=[N+]=[N-]
52 to 53 °C	CCCCc1c(CO)ccc2ccc(OC)cc12
109 to 110 °C	COc1cc(CC(=O)O)cc(OCCCc2cn(-c3ccc(C(F)(F)F)cn3)nc2C(C)C)c1
307 to 308 °C	O=C(NCc1ccc(Cl)cc1)c1nnc2ccc(I)cc2c1O
162 °C	CC1Oc2ccccc2-n2cnc(-c3noc(C4CC4)n3)c21 (configuration not stated)
255 to 256 °C	COc1ccc(C2(C)C(=O)Nc3cc(Cl)cc(Cl)c3C2=O)cc1[N+](=O)[O-] (configuration not stated)
86 to 87 °C	CC(=O)Oc1ccccc1C1CCC(=O)CC1
78 to 85 °C	CC1=Nc2ccccc2CN1C1CCC(=O)NC1=O (configuration not stated)
68.5 to 70 °C	CCOC(=O)C(=O)c1ccc(OCC(=O)c2c(C)cc(C)cc2C)cc1
241 to 242 °C	CCCOc1cc(S(C)(=O)=O)ccc1-c1ccc(C#N)c(=O)[nH]1

Compound	melting point
COc1ccc(Cn2c(C)c(C=O)c3cnnc(OCc4ccccc4)c32)cc1	139 to 145 °C
CN1C(=O)C(NC(=O)Nc2cccc(Cl)c2)N=C(c2ccccc2)c2ccccc21 (configuration not stated)	178 to 180 °C
